The record followed here is patent US20230097801A1, “METHODS OF INCREASING CELL PHAGOCYTOSIS” (National Health Research Institutes, priority 2021, published 2023).

Entries after “also recorded” stand apart in the source; their conditions may differ.

Common to all, as to type: cell-based
Assay [1] deals with CD47. The experiment in a line: Flow cytometry, anti-human CD47 CC2C6 antibody binding on Raji cell surface. Here is the method:
(§1) Binding between CD47 and SIRPα was studied by measuring the level of CD47 binding using any suitable method. Flow cytometric analysis is useful to quantify the level of binding of CD47 to antibody CC2C6, which is then subjected to an immune-staining procedure using fluorochrome-conjugated secondary antibody followed by analysis of the immune-staining signal with a flow cytometry instrument to obtain the level of the CD47-CC2C6 binding. In another method, analysis of CD47 is performed using SIRPα-Fc formed from SIRPα fused with human IgG1, which is then subjected to an immune-staining procedure using fluorochrome-conjugated secondary antibody against human IgG1, followed by analysis of the immune-staining signal. SIRPα is expressed on the surface of a myeloid cell such as macrophage, monocyte, neutrophil, or dendritic cell. Alternatively, SIRPα is fused with human IgG1 to form a SIRPα-Fc recombinant protein. […] An anti-cancer agent (e.g., rituximab) can be used together with a compound of formula (I). Useful anti-cancer agents are described above including anti-PD-L1 antibodies, anti-CD20 antibodies, anti-HER2 antibodies, anti-EGFR antibodies, and anti-CD47 antibodies. Other suitable anti-cancer agents are chemotherapeutic agents such as doxorubicin, epirubicin, idarubicin, methotrexate, mitoxantrone, oxaliplatin, and cyclophosphamide.
Human B-cell lymphoma Raji cells were purchased from BCRC, Taiwan. Raji cells were maintained at 37° C. under 5% CO2 in RPMI-1640 medium (Hyclone, Marlborough, Mass.) supplemented with 10% fetal bovine serum (FBS) (SAFC, Sigma-Aldrich, St. Louis, Mo.) containing 2 mM L-glutamine (Hyclone, Marlborough, Mass.), 10 mM HEPES (Hyclone, Marlborough, Mass.) and 1 mM sodium pyruvate (Hyclone, Marlborough, Mass.).
(§2) Antibody conjugates and extracellular domain of SIRPα used to analyze cell surface CD47 binding include anti-human CD47 CC2C6, 2D3, recombinant human SIRPα/CD172a Fc chimer protein, and anti-human IgG Fc. To determine inhibition of CD47 binding, cancer cells were treated with compounds of formula (I) at various concentrations for 4 days. Thereafter, the cells were washed with PBS containing 0.5% BSA (FACS buffer) followed by incubation with fluorochrome-labeled antibodies to human CD47 (i.e., CC2C6 and 2D3) at 1:50 dilution in FACS buffer for 30 minutes at 4° C. Compounds of formula (I) produced a dose-dependent inhibition of anti-CD47 CC2C6 antibody that recognized CD47 and SIRPα binding site on the tumor cell surface including B-cell lymphoma Raji cells, colon cancer cells DLD-1, and ovarian cancer SK-OV-3 cells (see FIGS. 1A, 1B, and 1C, respectively).

Assay [2] relates to CD47. The assay is described as follows: Flow cytometry, anti-human CD47 CC2C6 antibody binding on SK-OV-3 cell surface. Here is the method:
as §1
SK-OV-3 cells were purchased from ATCC (Manassas, Va.). SK-OV-3 cells were maintained at 37° C. under 5% CO2 in McCoy's 5a medium (Gibco, ThermoFisher, Waltham, Mass.) with 10% fetal bovine serum (FBS) (Sigma-Aldrich, St Louis, Mo.), and 2 mM L-glutamine.
as §2

The subject of assay [3] is CD47. The assay is described as follows: Flow cytometry, anti-human CD47 CC2C6 antibody binding on DLD-1 cell surface. The procedure:
as §1
Human colon cancer DLD-1 cells were obtained from NHRI IBPR HTS Lab, Taiwan. DLD-1 cells were maintained under the same conditions described immediately above.
as §2

As for `O=C1NC[C@H](c2ccc(-c3csc(C(F)(F)F)c3)c(F)c2F)N1c1ccc2[nH]cnc2c1` [Compound 34], the IC50 was determined as 1100 nM in assay [1] (B-cell Lymphoma (Raji cells), 4 days treatment, read-out: IC50, inhibition of CC2C6 binding); 190 nM in assay [2] (Ovarian Cancer (SK-OV3 cells), 4 days treatment, read-out: IC50, inhibition of CC2C6 binding); 580 nM in assay [3] (Colon Cancer (DLD-1 cells), 4 days treatment, read-out: IC50, inhibition of CC2C6 binding). The “inhibition of binding of anti-human CD47 antibody CC2C6 (in words)” value in assay [1] (Raji cells) was “specifically affected anti-CD47 CC2C6 antibody; also recorded: effectively inhibited”; in assay [2] (SK-OV-3 cells) it was “effectively inhibited”; in assay [3] (DLD-1 cells), “effectively inhibited”.

Broadly, the IC50 is the concentration at which inhibition is half-maximal.
